Reference: PMC11610143, “Characterization of dipyridamole as a novel ferroptosis inhibitor and its therapeutic potential in acute respiratory distress syndrome management” (Theranostics, 2024)

Legend:
SOD1 (A549 cells) = target: T1, SOD1 (A549 cells) (Homo sapiens, UniProt P00441); experiment: CETSA, western blot; format: biochemical; settings: 10 μM DIPY, 30 min; A549 cells pretreated with RSL3 5 μM for 8 h; 45-72 °C
T1 construct: endogenous full-length SOD1 in A549 cells, read by western blot
T1 sequence (P00441 2-154): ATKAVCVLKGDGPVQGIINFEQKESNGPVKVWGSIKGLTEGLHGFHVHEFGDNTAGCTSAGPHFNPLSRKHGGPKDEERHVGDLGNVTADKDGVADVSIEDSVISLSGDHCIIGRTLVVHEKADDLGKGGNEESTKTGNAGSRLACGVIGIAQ

[1] = target: T2, human SOD1 protein (#HY-P71048, MCE) (Homo sapiens, UniProt P00441); experiment: SPR (Biacore T200, CM5 chip, SOD1 immobilised); format: binding
T2 construct: commercial human SOD1 protein (MCE); amine-coupled to CM5 chip
T2 sequence (P00441 2-154, one chain of several): as the sequence (P00441 2-154) above

Kd [1]: 8.83 µM
SMILES: OCCN(CCO)c1nc(N2CCCCC2)c2nc(N(CCO)CCO)nc(N3CCCCC3)c2n1 [Dipyridamole]
thermal stability (CETSA) (SOD1 (A549 cells)): DIPY elevated the thermal stability of SOD1 compared with the control group
